Key:
[1] = test system: rabbit serum obtained by immunizing a rabbit with the SARS-CoV strain Frankfurt 1; format: binding; design: Binding of a rabbit serum to linear peptides / Binding of a rabbit serum to looped peptides / Rabbit serum linear peptides / Rabbit serum looped peptides / Binding of a rabbit serum to linear peptides of protein N of SARS-CoV Urbani (Rabbit serum linear peptides) / Binding of a rabbit serum to looped/cyclic peptides of protein N of SARS-CoV Urbani (Rabbit serum looped peptides): unit not given here
[2] = test system: antibodies in sera from SARS patients (sera 1a, 1b, 2, 6, 37, 62, London, SARS-yellow, SARS-green); format: binding, human; design: Binding of serum 6 to linear peptides of protein X1 of SARS-CoV Urbani / Binding of serum 37 to linear peptides of protein X1 of SARS-CoV Urbani / Binding of serum 6 to looped/cyclic peptide (PEPSCAN-ELISA) / Binding of serum 37 to looped/cyclic peptide (PEPSCAN-ELISA) / Binding of serum 37 to looped/cyclic peptides of protein X1 of SARS-CoV Urbani / Binding of serum 6 to linear peptides of protein X2 / Binding of serum 37 to linear peptides of protein X2 / Binding of serum 37 to looped/cyclic peptides of protein X2 of SARS-CoV Urbani / Binding of serum 6 to linear peptides of protein M of SARS-CoV Urbani / Binding of serum 37 to linear peptides of protein M of SARS-CoV Urbani / Binding of serum 6 to looped/cyclic peptides of protein M of SARS-CoV Urbani / Binding of serum 37 to looped/cyclic peptides of protein M of SARS-CoV Urbani / Binding of serum 6 to linear peptides of protein X3 of SARS-CoV Urbani / Binding of serum 37 to linear peptides of protein X3 of SARS-CoV Urbani / Binding of serum 37 to looped/cyclic peptides of protein X3 of SARS-CoV Urbani / Binding of serum 6 to linear peptides of protein X4 of SARS-CoV Urbani / Binding of serum 37 to linear peptides of protein X4 of SARS-CoV Urbani / Binding of serum 37 to looped/cyclic peptides of protein X4 of SARS-CoV Urbani / Binding of serum 6 to linear peptides of protein X5 of SARS-CoV Urbani / Binding of serum 37 to linear peptides of protein X5 of SARS-CoV Urbani / Binding of serum 37 to looped/cyclic peptides of protein X5 of SARS-CoV Urbani / Binding of serum 6 to linear peptides of protein N of SARS-CoV Urbani / Binding of serum 37 to linear peptides of protein N of SARS-CoV Urbani / Binding of serum 6 to linear peptide (PEPSCAN-ELISA) / Binding of serum 1a to looped/cyclic peptides of protein N of SARS-CoV Urbani / Binding of serum 1b to looped/cyclic peptides of protein N of SARS-CoV Urbani / Binding of serum 2 to looped/cyclic peptides of protein N of SARS-CoV Urbani / Binding of serum 6 to looped/cyclic peptides of protein N of SARS-CoV Urbani / Binding of serum 37 to looped/cyclic peptides of protein N of SARS-CoV Urbani / Binding of serum 62 to looped/cyclic peptides of protein N of SARS-CoV Urbani / Binding of serum London to looped/cyclic peptides of protein N of SARS-CoV Urbani / Binding of serum SARS-green to looped/cyclic peptides of protein N of SARS-CoV Urbani: unit not given here
[3] = test system: control sera (pooled serum of ten healthy LUMC hospital workers; commercial negative donor pooled serum from the Dutch bloodbank); format: binding, human; design: Binding of Control serum LUMC to linear peptides / Binding of Control serum Blood-bank to linear peptides / Binding of Control serum LUMC to looped peptides / Binding of Control Serum Blood-Bank to Looped peptides / Binding of Control serum LUMC to linear peptides of the protein M of SARS-CoV Urbani / Binding of Control serum Blood-bank to linear peptides of the protein M of SARS-CoV Urbani / Binding of Control serum LUMC to looped peptides of the protein M of SARS-CoV Urbani / Binding of Control Serum Blood-Bank to Looped peptides of the protein M of SARS-CoV Urbani: unit not given here
[4] = test system: recombinant human anti-SARS-CoV antibody 03-018; format: binding; design: Binding of antibody 03-018 to linear peptides of the N protein of SARS-CoV Urbani / Binding of antibody 03-018 to looped/cyclic peptides of the N protein of SARS-CoV Urbani: unit not given here

Sequence | Binding of a rabbit serum to linear peptides of protein N of SARS-CoV Urbani (Rabbit serum linear peptides) [1] | Binding of a rabbit serum to looped/cyclic peptides of protein N of SARS-CoV Urbani (Rabbit serum looped peptides) [1] | Binding of serum 1a to linear peptides of protein N of SARS-CoV Urbani [2] | Binding of serum 1a to looped/cyclic peptides of protein N of SARS-CoV Urbani [2] | Binding of serum 1b to linear peptides of protein N of SARS-CoV Urbani [2] | Binding of serum 1b to looped/cyclic peptides of protein N of SARS-CoV Urbani [2] | Binding of serum 2 to linear peptides of protein N of SARS-CoV Urbani [2] | Binding of serum 2 to looped/cyclic peptides of protein N of SARS-CoV Urbani [2] | Binding of serum 6 to linear peptides of protein N of SARS-CoV Urbani [2] | Binding of serum 6 to looped/cyclic peptides of protein N of SARS-CoV Urbani [2] | Binding of serum 37 to linear peptides of protein N of SARS-CoV Urbani [2] | Binding of serum 37 to looped/cyclic peptides of protein N of SARS-CoV Urbani [2] | Binding of serum 62 to linear peptides of protein N of SARS-CoV Urbani [2] | Binding of serum 62 to looped/cyclic peptides of protein N of SARS-CoV Urbani [2] | Binding of serum London to linear peptides of protein N of SARS-CoV Urbani [2] | Binding of serum London to looped/cyclic peptides of protein N of SARS-CoV Urbani [2] | Binding of serum SARS-green to linear peptides of protein N of SARS-CoV Urbani [2] | Binding of serum SARS-green to looped/cyclic peptides of protein N of SARS-CoV Urbani [2] | Binding of serum SARS-yellow to linear peptides of protein N of SARS-CoV Urbani [2] | Binding of serum SARS-yellow to looped/cyclic peptides of protein N of SARS-CoV Urbani [2] | other results
DDFSRQLQNSMSGAS | 0.5 | 0.3 | 0.2 | 0.3 | 0.1 | 0.1 | 0.2 | 0.3 | 0.2 | 0.1 | 0.8 | 0.4 | 0.7 | 0.3 | 0.7 | 0.2 | 0.4 | 0.2 | 0.6 | 0.1 | Control Serum Blood-Bank Looped peptides [3]: 0.3; Control serum Blood-bank linear peptides [3]: 0.8; Control serum LUMC linear peptides [3]: 0.6; Control serum LUMC looped peptides [3]: 0.3; Binding of antibody 03-018 to linear peptides of the N protein of SARS-CoV Urbani [4]: 0.2; Binding of antibody 03-018 to looped/cyclic peptides of the N protein of SARS-CoV Urbani [4]: 0.2
DEAQPLPQRQKKQPT | 0.1 | 0.0 | 0.2 | 0.2 | 0.2 | 0.1 | 0.3 | 0.2 | 0.3 | 0.1 | 0.8 | 0.3 | 0.7 | 0.2 | 1.5 | 0.3 | 0.6 | 0.0 | 1.6 | 0.2 | Control Serum Blood-Bank Looped peptides [3]: 0.3; Control serum Blood-bank linear peptides [3]: 0.7; Control serum LUMC linear peptides [3]: 0.8; Control serum LUMC looped peptides [3]: 0.3; Binding of antibody 03-018 to linear peptides of the N protein of SARS-CoV Urbani [4]: 0.1; Binding of antibody 03-018 to looped/cyclic peptides of the N protein of SARS-CoV Urbani [4]: 0.2
DLIRQGTDYKHWPQI | 0.0 | 0.5 | 0.2 | 0.4 | 0.1 | 0.2 | 0.2 | 0.4 | 0.2 | 0.2 | 0.6 | 0.6 | 0.6 | 0.6 | 0.9 | 0.4 | 0.4 | 0.2 | 0.6 | 0.3 | Binding of Control Serum Blood-Bank to Looped peptides [3]: 0.5; Binding of Control serum Blood-bank to linear peptides [3]: 0.6; Binding of Control serum LUMC to linear peptides [3]: 0.5; Binding of Control serum LUMC to looped peptides [3]: 0.5; Binding of antibody 03-018 to linear peptides of the N protein of SARS-CoV Urbani [4]: 0.1; Binding of antibody 03-018 to looped/cyclic peptides of the N protein of SARS-CoV Urbani [4]: 0.2

From US20070128217A1 (priority 2003, published 2007)
